These results are taken from patent publication US20090035306A1 (KALYPSYS, INC., priority 2006, published 2009).

pEC50: −log10 of the molar value.

For this test, the target named is T1, human TGR5 (Homo sapiens, UniProt Q8TDU6).
T1 construct: expressed in transfected cells
T1 sequence (Q8TDU6 1-330): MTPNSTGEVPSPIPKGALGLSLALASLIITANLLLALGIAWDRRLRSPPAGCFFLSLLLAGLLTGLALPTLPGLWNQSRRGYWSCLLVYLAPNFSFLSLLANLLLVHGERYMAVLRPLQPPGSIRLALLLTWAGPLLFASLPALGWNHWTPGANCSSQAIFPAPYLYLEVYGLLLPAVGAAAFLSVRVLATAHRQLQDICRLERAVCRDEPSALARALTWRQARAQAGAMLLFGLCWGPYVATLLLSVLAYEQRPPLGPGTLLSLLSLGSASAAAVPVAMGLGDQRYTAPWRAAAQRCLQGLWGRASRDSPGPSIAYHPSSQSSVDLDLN
Nature of the test: cAMP production assay in HEK293 cells stably expressing TGR5 (LANCE TR-FRET). The format is cell-based. To be noted: 30 minutes stimulation, read-out: cAMP Production in 293-TGR5 Cells EC50. Here is the method:
HEK293 cells stably expressing TGR5 (HEK293-TGR5) were established by stably transfecting HEK-293 cells with an expression vector (pcDNA 3.1, Invetrogen) inserted with human TGR5 cDNA using Fugene6 (Roche, Indianapolis, Ind.) according to conventional methods. Cells were grown in DMEM (invitrogen, Carlsbad, Calif.) supplemented with 10% FBS, 1% penicillin/streptomycin under geneticin selection. The presence of TGR5 transcripts in these cells was confirmed using branched DNA (bDNA, Genospectra, Inc., Fremont Calif.) following the manufacturer's protocol and using specific probes for human TGR5. cAMP production assay was performed in high throughput 1536 well format using LANCE cAMP detection kit (Perkin Elmer Inc., Boston, Mass.) according to the manufacturer's protocol. Briefly, HEK293-TGR5 cells were harvested using non-enzymatic cell dissociation buffer (Invitrogen, Carlsbad, Calif.) and suspended in DMEM supplemented with 0.1% FBS at a density of 800,000 cells/ml. Alexa antibody was added to the cell suspension, and 4 ul of the mixture was dispensed in white opaque tissue culture treated Greiner 1536 well plates (USA Scientific, Inc., Ocala, Fla.). After an overnight incubation at 37 C in an atmosphere of 10% CO2 and 95% humidity, 1 ul of 5 mM IBMX (Sigma, St. Louis, Mo.) solution in DMEM was dispensed for a final concentration of 1 mM. Cells were then stimulated with test compounds for 30 minutes, after which time 5 ul of detection reagent was added and incubated for 1-7 hrs at room temperature. TR-FRET signal was detected using the Viewlux (Perkin Elmer Inc., Boston Mass.). EC50 values were determined using Graph Pad Prizm analysis (GraphPad Software, Inc). The EC50 values for a wide range of bile acids generated from this assay were in agreement with the values published in the scientific literature. […] The symbol (+) denotes an EC50 value of ≦10 μM while the symbol (−) denotes an EC50 value of >10 μM (see Table 1).
On the technique in general: Cyclic AMP is a second messenger, typically raised through Gs and lowered through Gi signalling.
On to `Cc1cccc2c(=O)n(NCc3ccc(Br)cc3)c(-c3ccc(F)cc3)nc12` [Example 70, 3-(4-bromobenzylamino)-2-(4-fluorophenyl)-8-methylquinazolin-4(3H)-one], for which the negative-log EC50 (pEC50) (as a rule, the EC50 on a negative log10 scale, so that one unit is a factor of ten) is at least 5.00. The result for `Cc1cccc2c(=O)n(NCc3ccc(Cl)cc3)c(-c3ccc(F)cc3)nc12` [Example 71, 3-(4-chlorobenzylamino)-2-(4-fluorophenyl)-8-methylquinazolin-4(3H)-one] reads at least 5.00; that for `COc1cc(-c2nc3ccccc3c(=O)n2NCc2ccc(Br)cc2)ccc1F` [Example 72, 3-(4-bromobenzylamino)-2-(4-fluoro-3-methoxyphenyl)quinazolin-4(3H)-one], at least 5.00. Then `COc1cc(-c2nc3ccccc3c(=O)n2NCc2ccc(Cl)cc2)ccc1F` [Example 73, 3-(4-chlorobenzylamino)-2-(4-fluoro-3-methoxyphenyl)quinazolin-4(3H)-one], with at least 5.00; and `COc1cc(-c2nc3ccccc3c(=O)n2NCc2ccc(Br)cc2)ccc1Cl` [Example 74, 3-(4-Bromo-benzylamino)-2-(4-chloro-3-methoxy-phenyl)-3H-quinazolin-4-one], with at least 5.00.

As for `COc1cc(-c2nc3ccccc3c(=O)n2NCc2ccc(Cl)cc2)ccc1Cl` [Example 75, 3-(4-Chloro-benzylamino)-2-(4-chloro-3-methoxy-phenyl)-3H-quinazolin-4-one], the pEC50 is at least 5.00.

As to `COc1cccc2c(=O)n(NCc3ccc(Br)cc3)c(-c3ccc(F)cc3)nc12` [Example 76, 3-(4-Bromo-benzylamino)-2-(4-fluoro-phenyl)-8-methoxy-3H-quinazolin-4-one], the pEC50 is at least 5.00. Then `COc1cccc2c(=O)n(NCc3ccc(Cl)cc3)c(-c3ccc(F)cc3)nc12` [Example 77, 3-(4-Chloro-benzylamino)-2-(4-fluoro-phenyl)-8-methoxy-3H-quinazolin-4-one], with at least 5.00. Then `O=c1c2ccccc2nc(-c2ccc(F)cc2)n1NCc1ccc(C(F)(F)F)cc1` [Example 78, 2-(4-fluorophenyl)-3-(4-(trifluoromethyl)benzylamino)quinazolin-4(3H)-one], with at least 5.00; and `O=c1c2ccccc2nc(-c2ccc(F)cc2)n1NCc1ccc(Cl)cc1` [Example 79, 3-(4-chlorobenzylamino)-2-(4-fluorophenyl)quinazolin-4(3H)-one], with at least 5.00. The result for `O=c1c2ccccc2nc(-c2ccc(F)cc2)n1NCc1ccc(F)cc1F` [Example 80, 3-(2,4-difluorobenzylamino)-2-(4-fluorophenyl)quinazolin-4(3H)-one] reads at least 5.00; that for `Cc1ccc2c(=O)n(NCc3ccc(Br)cc3)c(-c3ccc(F)cc3)nc2c1` [Example 81, 3-(4-bromobenzylamino)-2-(4-fluorophenyl)-7-methylquinazolin-4(3H)-one], at least 5.00; that for `Cc1ccc2c(=O)n(NCc3ccc(C(F)(F)F)cc3)c(-c3ccc(F)cc3)nc2c1` [Example 82, 2-(4-fluorophenyl)-7-methyl-3-(4 (trifluoromethyl)benzylamino)quinazolin-4(3H)-one], under 5.00. On to `COc1cc2nc(-c3ccc(F)cc3)n(NCc3ccc(Br)cc3)c(=O)c2cc1OC` [Example 83, 3-(4-bromobenzylamino)-2-(4-fluorophenyl)-6,7-dimethoxy-quinazolin-4(3H)-one], for which the pEC50 is under 5.00. The result for `O=c1c2ccccc2nc(-c2ccc(F)cc2)n1NCCc1cccc(Br)c1` [Example 84, 3-(3-bromophenethylamino)-2-(4-fluorophenyl)quinazolin-4(3H)-one] reads under 5.00. Then `O=c1c2ccccc2nc(-c2ccc(F)cc2)n1NCCc1ccc(Br)cc1` [Example 85, 3-(4-bromophenethylamino)-2-(4-fluorophenyl)quinazolin-4(3H)-one], with at least 5.00.

For `O=c1c2ccccc2nc(-c2cccs2)n1NCc1ccc(Br)cc1` [Example 86, 3-(4-bromobenzylamino)-2-(thiophen-2-yl)quinazolin-4(3H)-one], the negative logarithm of the EC50 (pEC50) was at least 5.00. With `O=c1c2ccccc2nc(-c2cccs2)n1NCc1ccc(C(F)(F)F)cc1` [Example 87, 2-(thiophen-2-yl)-3-(4-(trifluoromethyl)benzylamino)quinazolin-4(3H)-one], the pEC50 is at least 5.00. The result for `O=c1c2ccccc2nc(-c2cccs2)n1N(Cc1ccc(C(F)(F)F)cc1)Cc1ccc(C(F)(F)F)cc1` [Example 88, 3-(bis(4-(trifluoromethyl)benzyl)amino)-2-(thiophen-2-yl)quinazolin-4(3H)-one] reads at least 5.00; that for `O=c1c2ccccc2nc(-c2ccsc2)n1NCc1ccc(Br)cc1` [Example 89, 3-(4-bromobenzylamino)-2-(thiophen-3-yl)quinazolin-4(3H)-one], at least 5.00. The result for `CN(Cc1ccc(Br)cc1)n1c(-c2ccc(F)cc2)nc2ccccc2c1=O` [Example 90, 3-((4-bromobenzyl)(methyl)amino)-2-(4-fluorophenyl)quinazolin-4(3H)-one] reads at least 5.00; that for `O=c1c2ccccc2nc(-c2ccc(F)cc2)n1NCc1cc(C(F)(F)F)cc(C(F)(F)F)c1` [Example 91, 3-(3,5-bis(trifluoromethyl)benzylamino)-2-(4-fluorophenyl)quinazolin-4(3H)-one], at least 5.00. Turning to `O=c1c2ccccc2nc(-c2ccc(F)c(F)c2)n1NCc1ccc(Br)cc1` [Example 92, 3-(4-bromobenzylamino)-2-(3,4-difluorophenyl)quinazolin-4(3H)-one], the pEC50 was at least 5.00.

As for `CCN(Cc1ccc(Br)cc1)n1c(-c2ccc(F)cc2)nc2ccccc2c1=O` [Example 93, 3-((4-bromobenzyl)(ethyl)amino)-2-(4-fluorophenyl)quinazolin-4(3H)-one], the pEC50 was at least 5.00.

`CCCN(Cc1ccc(Br)cc1)n1c(-c2ccc(F)cc2)nc2ccccc2c1=O` [Example 94, 3-((4-bromobenzyl)(propyl)amino)-2-(4-fluorophenyl)quinazolin-4(3H)-one]: the pEC50 is at least 5.00. The result for `O=c1c2ccc(O)cc2nc(-c2ccc(F)cc2)n1NCc1ccc(Br)cc1` [Example 95, 3-(4-bromobenzylamino)-2-(4-fluorophenyl)-7-hydroxy quinazolin-4(3H)-one] reads at least 5.00; that for `O=c1c2ccccc2nc(-c2cccc(O)c2)n1NCc1ccc(Br)cc1` [Example 96, 3-(4-bromobenzylamino)-2-(3-hydroxyphenyl)quinazolin-4(3H)-one], at least 5.00. As to `O=c1c2ccccc2nc(-c2ccc(O)cc2)n1NCc1ccc(Br)cc1` [Example 97, 3-(4-bromobenzylamino)-2-(4-hydroxyphenyl)quinazolin-4(3H)-one], the pEC50 was at least 5.00. The result for `O=c1c2cc(O)ccc2nc(-c2ccc(F)cc2)n1NCc1ccc(Cl)cc1` [Example 98, 3-(4-chlorobenzylamino)-2-(4-fluorophenyl)-6-hydroxyquinazolin-4(3H)-one] reads at least 5.00.

Consider `COc1cc(-c2nc3ccccc3c(=O)n2NCc2ccc(Br)cc2)ccc1O` [Example 99, 3-(4-bromobenzylamino)-2-(4-hydroxy-3-methoxyphenyl)quinazolin-4(3H)-one], for which the pEC50 was at least 5.00.

Turning to `COc1cc(-c2nc3ccccc3c(=O)n2NCc2ccc(Cl)cc2)ccc1O` [Example 100, 3-(4-chlorobenzylamino)-2-(4-hydroxy-3-methoxyphenyl)quinazolin-4(3H)-one], the pEC50 is at least 5.00.
